According to patent US8338410B2, “Neuroprotective compounds and pharmaceutical compositions comprising them” (Biocodex, priority 2005, dated 2012):

Tests used:
[1] = test system: cortical neurones in the presence of astrocytes in culture; assay: Prior cytotoxicity, microscopic observation after 48 hours; format: cell-based; conditions: 100 μM, 48 hours incubation
Procedure: (§1) • Cell type: Initial culture of cortical neurones from 14 day rat embryos and initial culture of cortical astrocytes from newborn rats. • Culture medium: DMEM-Ham F12 (Invitrogen 21331020) • B27 2% (invitrogen 17504044) • L-glutamine 2 mM (Invitrogen 25030024) • Penicillin 50 UI/ml—Streptomycin 50 μg/ml (Invitrogen 15070063) • Nerve Growth Factor 10 ng/ml (NGF, Invitrogen 13290.010) • Survival medium: MEM (Invitrogen 21090022) • L-glutamine 2 mM (Invitrogen 25030024) • Penicillin 50 UI/ml—Streptomycin 50 μg/ml (Invitrogen 15070063) • Supplement N2 (Invitrogen 17502-048) 1.2 Prior Cytotoxicity • Platelets: 96 wells • Culture time: 8 days • Cells/well: cortical neurones+astrocytes • Product range: from 100 μM then ratio 3 • Replicates: 3 • Cell/product contact: 48 hours • Evaluation parameters: microscopic observation and MTT hydrolysis. • MTT: 3-(4,5-dimethylthiozol-2-yl)-2,5-diphenyltetrazolium bromide 1.3 Treatment and Analysis of the Network of Extensions Marked with Antineurofilament Antibody
A first experiment was carried out (conventional test used to measure the level of cell survival) in order to investigate the cytotoxicity of etifoxine in relation to cortical neurones in the presence of astrocytes in culture and thus to determine the maximum non-toxic concentration of etifoxine.

[2] = test system: mixed cultures of rat cortical neurones and astrocytes; assay: Density of neuritic extensions marked by anti-neurofilament antibody, with or without excess glutamate; format: cell-based
Text: The principle of the investigation consisted of evaluating the survival of cortical neurones in co-culture with astrocytes after the application of a neurotoxic agent, excess glutamate.
Neurone survival is quantified by the density of the system of neuritic extensions marked by an anti-neurofilament antibody in the absence or presence of glutamate.
as §1
The cortical neurones were obtained from the cortex of 14 day rat embryos cultured in platelet culture medium 96 and then in a stove at 37° C. and 5% CO2 with saturated humidity. After 2 days culture astrocytes obtained from newborn rat cortex were seeded in the wells (in a ratio of 1 astrocyte to 4 neurones). After 10 days culture the mature neurones synthesised neurofilaments (structural protein specific to mature neurones); in addition to this these neurones expressed functional receptors to glutamate on their surfaces and could therefore be intoxicated.
On the 12th day of culture the medium was replaced by survival medium with or without etifoxine in 3 concentrations and the neurones were or were not intoxicated with glutamate (Sigma G1501) at a strength of 2 mM and 10 mM. Each culture condition was applied to 4 wells. The cultures were incubated for 2 periods (6 and 24 hours).
A positive control was carried out in the survival culture medium containing Nerve Growth Factor (NGF; 10 ng/ml) and basic Fibroblast Growth Factor (FGFb; 5 ng/ml) and the cells were intoxicated under the same conditions.
At the end of the two incubation periods (6 and 24 hours) the cell layers were fixed and marked with a anti-68- and 200 kD neurofilament monoclonal antibody (DAKO M0762) and then developed using a mouse anti-immunoglobulin goat antibody conjugate Alexia fluor 488 (Interchim A-11029). Controls without primary antibody were performed. All the controls were negative (no non-specific labelling). After extensive washing with PBS the preparations were observed under epi-fluorescence (Nikon Diaphot 300 microscope).
2 images were obtained for each culture well (4 wells per experimental condition) using a Nikon DXM1200F camera controlled by LUCIA 6.0 software.
All the images were obtained under the same conditions and with identical camera settings.
The densities of the networks of extensions marked with anti-neurofilament antibody were examined using LUCIA 6.0 software. Initial image processing made it possible to increase the intensity of the specific marking on the extensions. Areas in which marking was positive were binarised and the percentage marking per image was determined (marked surface area/total surface area examined).
The results (mean values±standard error with respect to the mean (SEM) were expressed as percentage marking per microscope field (n=8 measurements/culture conditions). 2-factor analysis of variance (Etifoxine and glutamate), followed by the Student Newman-Keuls multiple comparisons test was used for statistical comparison of the results. […]

[3] = test system: mice subjected to hypobaric hypoxia; assay: Hypobaric hypoxia in mice (survival time); format: in vivo, NMRI male mice; conditions: for Percentage variation / Survival time in seconds (m ± sem): Table 4: mice, hypobaric hypoxia 160 mmHg
Procedure: 1.1 Hypobaric Hypoxia in Mice
NMRI male mice from Janvier weighing between 25 and 30 grams were used after acclimatisation in the animal house for at least 7 days (t°=22±2° C.; humidity 50±20%; feed UAR “A04” SAFE (Augy, France) and tap water ad libitum; 12 hour night and day cycle (light from 7 a.m. to 7 p.m.).
The unfasting […] were distributed at random into lots of 10.
The protocol of Nakaniski et al. (1973) Life Sciences, 13, 467-474 was adapted for the purposes of the model.
Each mouse was placed in a dessicator (hermetically sealed enclosure) in which atmospheric pressure was reduced from 760 to 160 mmHg using a water pump. This pressure reduction was carried out in one minute and caused death of the control animals in approximately 1 minute.
The survival time of the animal, which corresponded to the difference between the time to death of the mouse assessed by respiratory arrest less the time required to induce the hypoxia was then noted.
The products under investigation were administered intraperitoneally (i.p.) (0.1 ml/10 g), 30 minutes before inducing hypobaric hypoxia, or orally (0.1 ml/10 g p.o.) 1 hour before hypoxia.
Etifoxine hydrochloride was dissolved in 1% Tween 80. The potassium cyanide (Merck) was dissolved in 0.9% NaCl.
The statistical test used was a one-factor analysis of variance to determine the treated groups, which differed from the control group receiving the vehicle, at a threshold of 5%.

[4] = test system: rats subjected to histotoxic hypoxia induced by potassium cyanide; assay: KCN (i.v.) hypoxia in rats (survival time); format: in vivo, Wistar male rats; conditions: for Percentage variation / Survival time in seconds (m ± sem): Table 5: rats, KCN 4 mg/kg i.p. (so in the source)
[5] = test system: mixed cultures of rat cortical neurones and astrocytes; assay: Density of neuritic extensions marked by anti-neurofilament antibody, with or without excess glutamate; format: cell-based; conditions: 10 μM of glutamate (so in the source), 6 hours, compound 1, 3 and 10 μM

## CC1(c2ccccc2)OC(N)=Nc2ccc(Cl)cc21 (stereo not shown) [desethyl-etifoxine, 2-amino-6-chloro-4-methyl-4-phenyl-4H-[3,1]benzoxazine]
[1]
  astrocyte mortality, visual examination with a microscope: astrocyte mortality was observed
[2]; control culture medium (without glutamate), 6 hours, significant at 10 μM
  density of marked neurofilaments: increased the density of labelled neurofilaments in a statistically significant way
[2]; glutamate 2 mM, 6 hours, only 10 μM of compound
  density of neurofilaments in the presence of glutamate: opposes the effect of glutamate
[3]; i.p. dose 30
  Percentage variation: +34%
  Survival time in seconds (m ± sem): 71.7 ± 4.8 s
[3]; i.p. dose 50
  Percentage variation: +32%
  Survival time in seconds (m ± sem): 70.7 ± 4.3 s
[3]; i.p. dose 75
  Percentage variation: +30%
  Survival time in seconds (m ± sem): 69.8 ± 2.7 s
[3]; p.o. dose 100
  Percentage variation: +45%
  Survival time in seconds (m ± sem): 61.0 ± 2.6 s
[3]; p.o. dose 200
  Percentage variation: +126%
  Survival time in seconds (m ± sem): 94.9 ± 9.9 s
[3]; p.o. dose 300
  Percentage variation: +126%
  Survival time in seconds (m ± sem): 94.8 ± 11.2 s
[3]; mice, hypobaric hypoxia, oral administration from 200 mg/kg
  survival time: significant increase in survival time
[3]; mice, hypobaric hypoxia, over 30 mg/kg i.p.
  anti-hypoxic activity: showed anti-hypoxic activity
[4]; compound i.p. dose 30
  Percentage variation: −4%
  Survival time in seconds (m ± sem): 55.0 ± 1.5 s
[4]; compound i.p. dose 50
  Percentage variation: −3%
  Survival time in seconds (m ± sem): 55.6 ± 1.5 s
[4]; compound i.p. dose 75
  Percentage variation: +27%
  Survival time in seconds (m ± sem): 72.7 ± 5.5 s
[4]; compound p.o. dose 50
  Percentage variation: +3%
  Survival time in seconds (m ± sem): 58.8 ± 1.9 s
[4]; compound p.o. dose 100
  Percentage variation: +42%
  Survival time in seconds (m ± sem): 81.3 ± 3.8 s
[4]; compound p.o. dose 200
  Percentage variation: +43%
  Survival time in seconds (m ± sem): 81.7 ± 4.1 s
[4]; rats, KCN hypoxia, 75 mg/kg i.p.
  survival time: increased survival time in a non-significant manner
[4]; rats, KCN hypoxia, over 100 mg/kg p.o.
  anti-hypoxic activity: showed anti-hypoxic activity
[5]
  density of marked neurofilaments in the presence of glutamate: opposes the decrease in the density of marked neurofilaments

## FGF: positive control: survival culture medium containing Nerve Growth Factor (NGF; 10 ng/ml) and basic Fibroblast Growth Factor (FGFb; 5 ng/ml)
[2]; positive control NGF 10 ng/ml + FGFb 5 ng/ml, glutamate 2 mM, 24 hours
  density of neurofilaments in the presence of glutamate: opposed the effects of 2 mM of glutamate
[2]; positive control NGF 10 ng/ml + FGFb 5 ng/ml, glutamate 2 and 10 mM, 6 hours
  density of neurofilaments in the presence of glutamate: opposed the decrease in density of neurofilaments induced by glutamate
